In ChEMBL document CHEMBL5291721, “A preclinical secondary pharmacology resource illuminates target-adverse drug reaction associations of marketed drugs” (Nat Commun, 2023):

Experiments:
[1] = biological target: Growth hormone secretagogue receptor type 1 (Homo sapiens, UniProt Q92847)
[2] = biological target: Voltage-dependent L-type calcium channel subunit alpha-1C (Rattus norvegicus, UniProt P22002); type: functional
[3] = biological target: T1, Muscarinic acetylcholine receptor M1 (Homo sapiens, UniProt P11229); type: functional
T1 sequence (P11229 whole entry): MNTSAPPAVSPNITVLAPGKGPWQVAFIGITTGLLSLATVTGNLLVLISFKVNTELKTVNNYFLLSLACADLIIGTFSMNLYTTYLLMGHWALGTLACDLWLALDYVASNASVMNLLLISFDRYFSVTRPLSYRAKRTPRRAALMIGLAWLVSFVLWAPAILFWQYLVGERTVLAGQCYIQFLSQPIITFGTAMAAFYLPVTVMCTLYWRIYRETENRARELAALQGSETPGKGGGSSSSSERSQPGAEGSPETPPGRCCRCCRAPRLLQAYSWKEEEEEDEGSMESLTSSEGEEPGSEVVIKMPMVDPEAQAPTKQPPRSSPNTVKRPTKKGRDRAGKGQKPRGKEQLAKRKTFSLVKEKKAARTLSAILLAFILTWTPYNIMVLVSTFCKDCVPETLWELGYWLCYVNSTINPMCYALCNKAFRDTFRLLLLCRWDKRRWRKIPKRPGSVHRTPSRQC

[4] = biological target: T2, Equilibrative nucleoside transporter 1 (Homo sapiens, UniProt Q99808)
T2 sequence (Q99808 whole entry): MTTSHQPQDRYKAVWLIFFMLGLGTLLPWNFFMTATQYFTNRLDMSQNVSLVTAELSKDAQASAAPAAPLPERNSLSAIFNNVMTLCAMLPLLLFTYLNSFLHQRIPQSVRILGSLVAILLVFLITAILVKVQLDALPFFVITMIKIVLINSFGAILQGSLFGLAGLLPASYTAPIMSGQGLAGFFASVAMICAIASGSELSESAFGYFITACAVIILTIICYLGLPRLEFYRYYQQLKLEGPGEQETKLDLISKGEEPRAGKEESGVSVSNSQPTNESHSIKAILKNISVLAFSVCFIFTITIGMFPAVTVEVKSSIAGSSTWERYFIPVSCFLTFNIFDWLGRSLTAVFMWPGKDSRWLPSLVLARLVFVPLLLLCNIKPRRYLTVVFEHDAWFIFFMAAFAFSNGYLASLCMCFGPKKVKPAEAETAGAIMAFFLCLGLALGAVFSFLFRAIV

[5] = biological target: T3, 5-hydroxytryptamine receptor 1A (Homo sapiens, UniProt P08908); type: functional, cell-based
T3 sequence (P08908 whole entry): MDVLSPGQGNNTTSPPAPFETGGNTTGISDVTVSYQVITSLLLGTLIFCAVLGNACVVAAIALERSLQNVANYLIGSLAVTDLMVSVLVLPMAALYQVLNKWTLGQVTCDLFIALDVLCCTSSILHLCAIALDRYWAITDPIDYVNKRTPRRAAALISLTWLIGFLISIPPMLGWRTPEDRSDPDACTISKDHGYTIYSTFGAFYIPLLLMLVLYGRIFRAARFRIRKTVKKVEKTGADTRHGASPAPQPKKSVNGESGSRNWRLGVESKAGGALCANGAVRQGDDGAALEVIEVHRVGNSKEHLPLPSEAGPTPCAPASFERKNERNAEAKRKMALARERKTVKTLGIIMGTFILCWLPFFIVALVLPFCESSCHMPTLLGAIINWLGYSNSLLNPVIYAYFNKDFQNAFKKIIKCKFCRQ

[6] = biological target: Glutamate receptor ionotropic, NMDA 1 (Rattus norvegicus, UniProt P35439)
[7] = biological target: T4, 5-hydroxytryptamine receptor 2B (Homo sapiens, UniProt P41595); type: functional, cell-based
[8] = biological target: T4, 5-hydroxytryptamine receptor 2B; type: functional, cell-based; remark: listed apart in the source
Vasopressin V2 receptor = Vasopressin V2 receptor (Homo sapiens, UniProt P30518)
[9] = biological target: Sodium-dependent serotonin transporter (Homo sapiens, UniProt P31645)
Cannabinoid receptor 1 [10] = biological target: T5, Cannabinoid receptor 1 (Homo sapiens, UniProt P21554); type: functional, cell-based
[11] = biological target: T3, 5-hydroxytryptamine receptor 1A; type: functional, cell-based; remark: listed apart in the source
Cannabinoid receptor 1 [12] = biological target: T5, Cannabinoid receptor 1; type: functional, cell-based; remark: listed apart in the source
Adenosine receptor A3 = biological target: T6, Adenosine receptor A3 (Homo sapiens, UniProt P0DMS8)
T6 sequence (P0DMS8 whole entry): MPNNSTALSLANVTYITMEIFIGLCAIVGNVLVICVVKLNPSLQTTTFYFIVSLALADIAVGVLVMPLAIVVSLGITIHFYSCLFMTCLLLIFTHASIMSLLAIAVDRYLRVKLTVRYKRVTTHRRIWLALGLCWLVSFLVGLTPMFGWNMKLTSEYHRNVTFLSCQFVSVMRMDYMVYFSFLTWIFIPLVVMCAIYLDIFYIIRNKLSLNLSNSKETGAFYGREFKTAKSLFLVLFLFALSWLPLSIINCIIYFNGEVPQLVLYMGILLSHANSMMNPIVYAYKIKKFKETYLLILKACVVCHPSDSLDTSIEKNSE

[13] = biological target: 3',5'-cyclic-AMP phosphodiesterase 4D (Homo sapiens, UniProt Q08499); type: functional
Endothelin-1 receptor = biological target: T7, Endothelin-1 receptor (Homo sapiens, UniProt P25101)
T7 sequence (P25101 whole entry): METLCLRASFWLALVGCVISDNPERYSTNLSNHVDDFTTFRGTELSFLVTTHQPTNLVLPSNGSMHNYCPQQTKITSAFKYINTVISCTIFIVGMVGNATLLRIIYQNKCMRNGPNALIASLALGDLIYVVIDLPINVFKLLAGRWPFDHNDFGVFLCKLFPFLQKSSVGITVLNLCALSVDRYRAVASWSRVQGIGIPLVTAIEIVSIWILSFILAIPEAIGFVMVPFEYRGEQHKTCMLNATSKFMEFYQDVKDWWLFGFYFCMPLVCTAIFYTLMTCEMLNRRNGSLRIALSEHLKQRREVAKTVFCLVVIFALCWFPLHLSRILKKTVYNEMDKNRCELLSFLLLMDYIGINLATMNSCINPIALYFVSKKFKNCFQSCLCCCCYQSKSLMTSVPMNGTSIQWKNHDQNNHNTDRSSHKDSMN
Note: assay procedure not described here.

Chain of Growth hormone secretagogue receptor type 1 (Q92847 whole entry): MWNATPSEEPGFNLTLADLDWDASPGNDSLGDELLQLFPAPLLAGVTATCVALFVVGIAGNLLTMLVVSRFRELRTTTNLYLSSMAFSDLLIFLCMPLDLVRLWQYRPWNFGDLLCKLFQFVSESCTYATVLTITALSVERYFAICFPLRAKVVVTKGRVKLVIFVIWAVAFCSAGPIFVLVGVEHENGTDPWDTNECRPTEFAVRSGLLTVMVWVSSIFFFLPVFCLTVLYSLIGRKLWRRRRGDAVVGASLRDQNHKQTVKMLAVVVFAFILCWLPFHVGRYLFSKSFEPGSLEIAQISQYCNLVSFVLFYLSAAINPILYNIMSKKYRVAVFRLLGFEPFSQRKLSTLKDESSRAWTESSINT
Chain of Voltage-dependent L-type calcium channel subunit alpha-1C (P22002 whole entry): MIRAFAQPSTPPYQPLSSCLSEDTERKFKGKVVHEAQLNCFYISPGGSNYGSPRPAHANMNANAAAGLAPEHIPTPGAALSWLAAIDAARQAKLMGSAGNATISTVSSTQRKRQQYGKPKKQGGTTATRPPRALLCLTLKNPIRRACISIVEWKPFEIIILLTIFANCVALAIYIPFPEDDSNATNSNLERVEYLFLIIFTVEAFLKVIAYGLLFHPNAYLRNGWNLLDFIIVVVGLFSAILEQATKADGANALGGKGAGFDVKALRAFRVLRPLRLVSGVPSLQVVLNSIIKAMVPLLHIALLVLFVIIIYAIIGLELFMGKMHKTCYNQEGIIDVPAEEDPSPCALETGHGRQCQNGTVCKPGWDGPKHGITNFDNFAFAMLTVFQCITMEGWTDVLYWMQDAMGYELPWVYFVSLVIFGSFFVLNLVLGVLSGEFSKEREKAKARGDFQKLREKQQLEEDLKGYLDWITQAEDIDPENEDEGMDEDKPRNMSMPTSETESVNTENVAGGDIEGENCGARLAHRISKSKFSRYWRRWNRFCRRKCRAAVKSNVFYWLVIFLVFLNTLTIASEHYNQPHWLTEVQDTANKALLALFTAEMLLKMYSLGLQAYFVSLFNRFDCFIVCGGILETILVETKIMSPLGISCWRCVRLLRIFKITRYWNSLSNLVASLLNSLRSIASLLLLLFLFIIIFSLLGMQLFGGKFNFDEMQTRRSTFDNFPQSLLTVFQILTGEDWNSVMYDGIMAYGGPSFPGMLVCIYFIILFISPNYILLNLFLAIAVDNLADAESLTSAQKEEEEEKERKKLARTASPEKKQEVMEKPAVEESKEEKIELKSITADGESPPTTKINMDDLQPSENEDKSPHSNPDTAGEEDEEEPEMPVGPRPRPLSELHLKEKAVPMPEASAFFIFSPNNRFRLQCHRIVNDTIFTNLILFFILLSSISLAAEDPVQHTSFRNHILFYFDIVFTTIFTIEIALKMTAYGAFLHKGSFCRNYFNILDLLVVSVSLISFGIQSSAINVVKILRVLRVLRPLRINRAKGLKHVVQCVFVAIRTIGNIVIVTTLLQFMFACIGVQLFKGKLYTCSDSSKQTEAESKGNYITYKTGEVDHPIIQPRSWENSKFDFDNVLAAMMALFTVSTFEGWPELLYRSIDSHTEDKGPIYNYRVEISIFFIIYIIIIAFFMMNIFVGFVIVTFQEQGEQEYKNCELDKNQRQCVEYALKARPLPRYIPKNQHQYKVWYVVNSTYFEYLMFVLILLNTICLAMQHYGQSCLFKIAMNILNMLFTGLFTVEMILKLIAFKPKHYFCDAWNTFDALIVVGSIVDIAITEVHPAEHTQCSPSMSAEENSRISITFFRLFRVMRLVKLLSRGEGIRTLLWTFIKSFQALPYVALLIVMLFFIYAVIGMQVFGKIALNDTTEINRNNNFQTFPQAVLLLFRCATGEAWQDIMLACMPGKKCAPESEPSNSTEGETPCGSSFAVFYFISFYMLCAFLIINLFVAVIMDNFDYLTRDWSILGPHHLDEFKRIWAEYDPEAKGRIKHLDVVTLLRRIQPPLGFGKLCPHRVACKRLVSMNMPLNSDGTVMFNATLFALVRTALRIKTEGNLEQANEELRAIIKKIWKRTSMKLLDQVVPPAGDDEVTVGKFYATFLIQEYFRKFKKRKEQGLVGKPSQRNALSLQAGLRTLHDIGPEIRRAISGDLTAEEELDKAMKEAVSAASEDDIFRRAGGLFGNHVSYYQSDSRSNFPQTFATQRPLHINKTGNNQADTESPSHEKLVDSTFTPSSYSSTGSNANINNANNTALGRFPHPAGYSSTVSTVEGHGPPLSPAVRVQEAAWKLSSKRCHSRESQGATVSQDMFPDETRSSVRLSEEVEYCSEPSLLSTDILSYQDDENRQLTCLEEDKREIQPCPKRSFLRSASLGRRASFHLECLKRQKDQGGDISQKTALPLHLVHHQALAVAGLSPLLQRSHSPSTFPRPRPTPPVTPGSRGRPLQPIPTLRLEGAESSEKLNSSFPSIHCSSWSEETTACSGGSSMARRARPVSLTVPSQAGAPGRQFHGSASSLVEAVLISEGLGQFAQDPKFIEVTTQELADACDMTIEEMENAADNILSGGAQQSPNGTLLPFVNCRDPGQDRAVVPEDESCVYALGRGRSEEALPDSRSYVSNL
Chain of Sodium-dependent serotonin transporter (P31645 whole entry): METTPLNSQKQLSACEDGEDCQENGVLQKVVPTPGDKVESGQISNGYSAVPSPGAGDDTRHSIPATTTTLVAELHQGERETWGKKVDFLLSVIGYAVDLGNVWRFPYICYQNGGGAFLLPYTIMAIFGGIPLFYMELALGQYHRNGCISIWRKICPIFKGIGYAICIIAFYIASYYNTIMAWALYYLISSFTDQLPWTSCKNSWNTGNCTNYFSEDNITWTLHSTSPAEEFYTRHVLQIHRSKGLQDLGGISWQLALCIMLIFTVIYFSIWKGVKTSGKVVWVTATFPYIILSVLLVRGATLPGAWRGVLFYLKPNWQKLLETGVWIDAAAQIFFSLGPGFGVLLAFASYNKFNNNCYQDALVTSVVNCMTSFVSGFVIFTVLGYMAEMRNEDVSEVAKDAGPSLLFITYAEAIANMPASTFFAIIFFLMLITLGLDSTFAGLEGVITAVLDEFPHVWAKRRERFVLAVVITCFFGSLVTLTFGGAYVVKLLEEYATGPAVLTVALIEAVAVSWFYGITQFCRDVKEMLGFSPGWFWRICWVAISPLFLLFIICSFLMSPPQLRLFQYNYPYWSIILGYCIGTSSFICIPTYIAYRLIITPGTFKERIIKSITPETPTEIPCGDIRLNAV
Chain of Vasopressin V2 receptor (P30518 whole entry): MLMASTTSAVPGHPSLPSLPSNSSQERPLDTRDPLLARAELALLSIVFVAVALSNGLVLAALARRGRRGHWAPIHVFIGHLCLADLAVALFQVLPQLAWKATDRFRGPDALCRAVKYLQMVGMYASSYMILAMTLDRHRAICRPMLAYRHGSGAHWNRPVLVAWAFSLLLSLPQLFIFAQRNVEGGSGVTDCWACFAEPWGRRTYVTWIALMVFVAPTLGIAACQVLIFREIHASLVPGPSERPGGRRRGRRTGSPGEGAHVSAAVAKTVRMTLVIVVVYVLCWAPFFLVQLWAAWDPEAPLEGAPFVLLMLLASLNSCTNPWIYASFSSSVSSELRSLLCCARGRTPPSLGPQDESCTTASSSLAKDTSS
T5 sequence (P21554 whole entry): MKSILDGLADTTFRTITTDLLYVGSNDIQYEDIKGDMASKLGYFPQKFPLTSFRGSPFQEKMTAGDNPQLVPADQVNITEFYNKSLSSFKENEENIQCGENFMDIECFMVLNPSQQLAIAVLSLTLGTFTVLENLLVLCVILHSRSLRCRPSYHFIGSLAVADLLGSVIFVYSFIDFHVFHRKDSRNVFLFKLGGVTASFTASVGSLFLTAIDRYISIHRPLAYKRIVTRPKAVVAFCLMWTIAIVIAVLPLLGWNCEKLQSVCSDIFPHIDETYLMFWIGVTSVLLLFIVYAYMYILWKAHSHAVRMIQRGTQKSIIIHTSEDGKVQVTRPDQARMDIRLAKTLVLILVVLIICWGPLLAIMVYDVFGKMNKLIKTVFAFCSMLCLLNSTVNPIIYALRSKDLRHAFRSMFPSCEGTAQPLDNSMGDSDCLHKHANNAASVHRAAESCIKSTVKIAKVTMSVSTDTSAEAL
T4 sequence (P41595 whole entry): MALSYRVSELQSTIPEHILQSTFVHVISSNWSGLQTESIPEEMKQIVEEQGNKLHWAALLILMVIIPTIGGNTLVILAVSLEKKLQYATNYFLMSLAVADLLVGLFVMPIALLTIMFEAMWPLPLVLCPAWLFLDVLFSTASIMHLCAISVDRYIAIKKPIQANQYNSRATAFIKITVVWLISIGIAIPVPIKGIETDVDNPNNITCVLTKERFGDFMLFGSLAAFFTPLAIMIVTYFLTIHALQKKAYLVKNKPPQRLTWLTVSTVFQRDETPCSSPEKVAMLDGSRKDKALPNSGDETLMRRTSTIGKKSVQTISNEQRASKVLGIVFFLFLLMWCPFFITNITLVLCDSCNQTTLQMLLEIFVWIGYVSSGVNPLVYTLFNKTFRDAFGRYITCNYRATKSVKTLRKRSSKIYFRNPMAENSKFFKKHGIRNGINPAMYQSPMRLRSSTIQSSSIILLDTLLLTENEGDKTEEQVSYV

Row | Compound | AC50 [1] | AC50 [2] | AC50 [3] | AC50 [4] | AC50 [5] | AC50 [6] | AC50 [7] | AC50 [8] | AC50 (Vasopressin V2 receptor) | AC50 [9] | AC50 (Cannabinoid receptor 1 [10]) | AC50 [11] | AC50 (Cannabinoid receptor 1 [12]) | AC50 (Adenosine receptor A3) | AC50 [13] | AC50 (Endothelin-1 receptor)
1 | CN1CC(=O)N2[C@H](c3ccc4c(c3)OCO4)c3[nH]c4ccccc4c3C[C@@H]2C1=O | > 30 µM | > 10 µM | > 10 µM | > 30 µM | > 10 µM | > 10 µM | > 10 µM | > 10 µM | > 30 µM | 34.8 µM | > 30 µM | > 10 µM | > 30 µM | > 30 µM |  | 
2 | CC(C)C(=O)OCC(=O)[C@@]12O[C@H](C3CCCCC3)O[C@@H]1C[C@H]1[C@@H]3CCC4=CC(=O)C=C[C@]4(C)[C@H]3[C@@H](O)C[C@@]12C [CICLESONIDE] | > 10 µM | > 10 µM | > 10 µM | > 10 µM | > 10 µM | > 10 µM | > 10 µM | > 10 µM | > 10 µM | > 10 µM | > 30 µM | > 10 µM | > 30 µM | 4.2 µM | > 30 µM | 
3 | CN1C(=O)CC(=O)N(c2ccccc2)c2cc(Cl)ccc21 [CLOBAZAM] | > 10 µM | > 10 µM | > 10 µM | > 10 µM | > 10 µM | > 10 µM | > 10 µM | > 10 µM | > 10 µM | > 10 µM |  | > 10 µM |  | > 10 µM | 10 µM | 
4 | [H]/N=C(/N)c1ccc(NCc2nc3cc(C(=O)N(CCC(=O)O)c4ccccn4)ccc3n2C)cc1 [DABIGATRAN] | > 30 µM |  | > 30 µM | > 30 µM |  | > 30 µM | > 30 µM | > 30 µM | > 30 µM | > 30 µM | > 30 µM | > 30 µM | > 30 µM | > 30 µM | > 30 µM | > 30 µM
5 | CCCCOc1cc(C(=O)NCCN(CC)CC)c2ccccc2n1 [DIBUCAINE] | 15.8 µM | > 10 µM | > 10 µM | > 10 µM | > 10 µM | > 10 µM | > 10 µM | > 10 µM | > 30 µM | > 10 µM | > 30 µM | > 10 µM | > 30 µM | > 30 µM | > 30 µM | 
6 | C#CC1(OC(N)=O)CCCCC1 [ETHINAMATE] | > 10 µM | > 10 µM | > 10 µM | > 10 µM | > 10 µM | > 10 µM | > 10 µM | > 10 µM | > 10 µM | > 10 µM |  | > 10 µM |  | > 10 µM | > 30 µM | 
7 | CCC1(C2=CCCCCC2)C(=O)NC(=O)NC1=O [HEPTABARBITAL] | > 10 µM | > 10 µM | > 10 µM | > 10 µM |  | > 10 µM | > 10 µM | > 10 µM | > 10 µM | > 10 µM | > 30 µM | > 10 µM | > 30 µM | > 10 µM | > 30 µM | 
8 | CN1CC[C@]23CCCC[C@H]2[C@H]1Cc1ccc(O)cc13 [LEVORPHANOL] | > 10 µM | > 10 µM | > 30 µM | > 30 µM | > 10 µM | 0.652 µM | > 10 µM | > 10 µM | > 10 µM | 0.173 µM |  | > 10 µM |  | > 10 µM | > 30 µM | 
9 | CN1CCC2=C(C1)C(c1ccccc1)c1ccccc12 (stereo not drawn) [PHENINDAMINE] | > 10 µM | > 10 µM | > 10 µM | > 30 µM | > 10 µM | > 10 µM | > 10 µM | > 10 µM | > 10 µM | > 30 µM |  | > 10 µM |  | > 10 µM | 8.7 µM | 
10 | CN1C(=O)CC(c2ccccc2)C1=O (stereo not drawn) [PHENSUXIMIDE] | > 10 µM | > 10 µM | > 10 µM | > 10 µM |  | > 10 µM | > 10 µM | > 10 µM | > 10 µM | > 10 µM | > 30 µM | > 10 µM | > 30 µM | > 10 µM | > 30 µM | 
11 | CC(Cc1ccccc1)NCCC(c1ccccc1)c1ccccc1 (stereo not drawn) [PRENYLAMINE] | 3 µM | 4.28 µM | > 10 µM | > 30 µM |  | > 10 µM | > 10 µM | > 10 µM | > 30 µM | 17.6 µM |  | > 30 µM |  | 15.6 µM | > 30 µM | 
12 | C1COC(NC(C2CC2)C2CC2)=N1 [RILMENIDINE] | > 30 µM | > 10 µM | > 10 µM | > 30 µM | > 30 µM | > 10 µM | > 10 µM | > 10 µM | > 30 µM | > 30 µM | > 30 µM | > 30 µM | > 30 µM | > 30 µM | > 30 µM | 
13 | Cc1c(C(=O)Nc2ccc(N3C[C@@H](C)O[C@@H](C)C3)nc2)cccc1-c1ccc(OC(F)(F)F)cc1 [SONIDEGIB] | > 30 µM | > 10 µM | > 10 µM | > 30 µM |  | > 10 µM |  |  | > 30 µM | > 10 µM |  |  |  | > 30 µM | > 30 µM | > 30 µM
14 | CC(=O)NS(=O)(=O)c1ccc(N)cc1 [SULFACETAMIDE] | > 10 µM | > 10 µM | > 10 µM | > 10 µM | > 10 µM | > 10 µM | > 10 µM | > 10 µM | > 10 µM | > 10 µM |  | > 10 µM |  | > 10 µM | > 30 µM | 
